In patent publication US20080119530A1, “Method for treatment and prevention of ultraviolet light induced skin pathologies” (priority 2006, published 2008):

Test system: primary keratinocytes
Test: Cell cycle distribution (DNA content, flow cytometry) in cultured keratinocytes
Type: cell-based, mouse
Excerpt: Cell culture. […] Keratinocytes were transfected with Erbb2-targeted siRNA (32), Stealth RNAi Negative Control LO GC (Invitrogen, Carlsbad, Calif.), Cy3-conjugated Label IT RNAi Delivery Control (Mirus, Madison, Wis.) or sham transfection with TransIT-siQUEST Transfection Reagent (Mirus, Madison, Wis.). Plasmids with Cdc25a (Hassepass et al. 2003a) and EGFP (enhanced green fluorescent protein) cDNA were cotransfected with Lipofectamine Transfection Reagent (Invitrogen, Carlsbad, Calif.). Transfection efficiency was quantified by determining the proportion of the cells that incorporated the fluorescent Cy3-conjugated siRNA or GFP one day post-transfection. Keratinocytes homozygous for the Erbb2 loxP mutation were infected with Cre recombinase-expressing or empty adenoviral vectors in polybrene (Sigma).
Cell cycle. For in vivo analysis of cell cycle distribution, sections from paraffin embedded blocks were dewaxed with xylene, rehydrated and digested in PBS containing 0.5% pepsin (Sigma, St. Louis, Mo.). The nuclei were isolated by filtration and suspended in Vindelov's solution reagent (3.5 mM tris base, pH 7.6, 10 mM NaCl, […] Ribonuclease A, 75 μg/ml PI, 1.01l/ml IPEGAL) (56). For in vitro analysis, keratinocytes were resuspended, fixed in 70% ethanol, resuspended in Vindelov's solution (3.5 mM Tris base, pH 7.6, 10 mM NaCl, 10 μg/ml Ribonuclease A, 75 μg/ml propidium iodide, 1.01l/ml IPEGAL), and analyzed on a FACSCalibur flow cytometer (Becton Dickinson, Franklin Lakes, N.J.). Cell cycle distributions were determined using ModFit LT 3.1 software (Verity Software House, Topsham, Me.). […]
To further investigate Erbb2's effects on cell cycle progression after UV irradiation, DNA synthesis was examined after UV irradiation of cultured primary keratinocytes lacking Erbb2 activity. […] An even more striking effect was detected after UV irradiation. […] The influence of Erbb2 activation on S-phase progression was determined using both pharmacologic and genetic models to interfere with Erbb2 signaling. […]

Structure (SMILES): COc1cc(/C=C(\C#N)C(N)=O)cc(CSc2nc3ccccc3s2)c1O [AG825]
- time at which S-phase arrest began (after UV exposure): 18 h
- S-phase arrest (after sham UV): caused S-phase arrest
- increase in the percentage of cells in S-phase (inhibition prior to UV exposure): 10%
